Columns and labels:
[1] = tested on: mutant hygromycin resistance gene in Mata+IntHYG(rep)eGFP; assay: Yeast cell targeting assay: oligonucleotide-directed alteration of the integrated hygromycin-eGFP target; type: cell-based; conditions: for Alteration per 10^5 Aureobasidin^R colonies: average of four experiments with standard deviation
human β-globin gene [2] = assay: Dual oligonucleotide experiment: screen of hygromycin-resistant colonies for alteration of the β-globin target in the βS YAC (PCR, SNaPshot); conditions: in hygromycin-selected population; with or without Rad51 overexpression
[3] = tested on: mutated Hyg(rep)eGFP target in Mata-intHyg(rep)eGFP/βYAC; assay: Dual oligonucleotide experiment: conversion efficiency for the hygromycin target (Example 2); type: cell-based, yeast
[4] = tested on: chromosomal hygromycin mutant gene in LSY678IntHyg(rep)β cells; assay: Dual targeting protocol: correction efficiency (C.E.) of the chromosomal hygromycin mutation (Example 4); type: cell-based, yeast; conditions: LSY678IntHyg(rep)β + RAD51 expression plasmid; HU and TSA; compared with FIG. 3
human β-globin gene [5] = assay: Dual targeting protocol: second-site editing of the YAC β-globin gene in hygromycin-resistant colonies (SNaPshot, sequencing); conditions: RAD51 overexpression; HU and TSA

5′-C*T*C* GTGCTTTCAGCTTCGATGTAGGAGGGCGTGGATACGTCCTGCGGGTAAATAGCTGCGCCGATGGTTTC *T*A*C-3′ [Hyg3S/74T]
Fold correction (relative to Hyg3S/74T) [1]: 1x | Alteration per 10^5 Aureobasidin^R colonies [1]: 0.22 ± 0.3 per 10^5 Aureobasidin^R colonies

5′-G*C*C* TCACCACCAACTTCATCCACGTTCACCTTGCCTCACAGGGCAGTAACGGCAGACTTCTCCACAGG*A *G*T-3′ [βS-386m]
alteration efficiency of the β-globin gene relative to alteration of the hygromycin target (human β-globin gene [2]): approximately 10 fold

5′-G*T*A* GAAACCATCGGCGCAGCTATTTACCCGCAGGACGTATCCACGCCCTCCTACATCGAAGCTGAAAGCAC*G *A*G-3′ [Hyg3S/74NT]
Fold correction (relative to Hyg3S/74T) [1]: 4.0x | Alteration per 10^5 Aureobasidin^R colonies [1]: 0.89 ± 1.3 per 10^5 Aureobasidin^R colonies | Hygromycin Alteration Efficiency (/10^5) ([3]; βS-378m Experiment, Mata-intHyg(rep)eGFP/βYAC (HU + TSA)): 12.79 /10^5 | Hygromycin Alteration Efficiency (/10^5) ([3]; βS-378m Experiment, Mata-intHyg(rep)eGFP/βYAC + pYNARad51 (HU + TSA)): 96.96 /10^5 | Hygromycin Alteration Efficiency (/10^5) ([3]; βS-386m Experiment, Mata-intHyg(rep)eGFP/βYAC (HU + TSA)): 12.35 /10^5 | Hygromycin Alteration Efficiency (/10^5) ([3]; βS-386m Experiment, Mata-intHyg(rep)eGFP/βYAC, no HU or TSA): 3.22 /10^5 | effect of RAD51 expression on hygromycin correction efficiency [4]: increases

5′-T*A*A* CGGCAGACTTCTCCACAGGAGTCAGGTGCACCGTGGTGTCTGTTTGAGGTTGCTAGTGAACACAG*T *T*G-3′ [βS-378m]
alteration efficiency of the β-globin gene relative to alteration of the hygromycin target (human β-globin gene [2]): approximately 10 fold | cells bearing the corrected hygromycin that also contain the edited β-globin gene (human β-globin gene [5]): approximately 10%

From patent publication US20040175722A1, “Methods and compositions for reducing screening in oligonucleotide-directed nucleic acid sequence alteration” (priority 2002, published 2004)
